Data reported in patent US20080152735A1, “Herbal Extract Having Anti- Influenza Virus Activity and Preparation of Same” (NATIONAL DEFENSE MEDICAL CENTER, priority 2006, published 2008).
Read-outs that look alike come from different tables or passages of the source.

Key:
[1] = tested on: neuraminidase (NA) of influenza virus; format: biochemical; conditions: for FU/min (neuraminidase enzymatic activity in presence of medicament): kit positive control 0.42 FU/min; for activity relative to that of Tamiflu: same dosage 0.5 mg/mL, ratio of FU/min values
influenza virus (H1N1) = assay: in vitro anti-influenza virus test in MDCK cells, MTT readout; format: cell-based
[2] = tested on: MDCK cells (Madin-Darby Canine Kidney Epithelial Cells)

## CC(C)=CCc1c(O)cc2oc(-c3ccc(O)cc3)c(O)c(=O)c2c1O [SOFL-EM-8-6C, licoflavonol]
[1]; dosage 0.05 mg/mL
  Response: Inhibition
  FU/min (neuraminidase enzymatic activity in presence of medicament): 0.13 FU/min
[1]; dosage 0.5 mg/mL
  Response: Inhibition
  FU/min (neuraminidase enzymatic activity in presence of medicament): 0.02 FU/min
[1]
  activity relative to that of Tamiflu: two-fold
Influenza virus (H1N1); D1+V: infecting with virus one hour after pretreatment with test drug, 10 μg/mL
  cell survival rate: up to 100%
Influenza virus (H1N1); DV: cells treated simultaneously with test drug and virus, 10 μg/mL
  cell survival rate: 75%
Influenza virus (H1N1); MTT absorbance percentage vs mock control, cells treated simultaneously with test drug and virus, dosage 10 μg/mL, MDCK cells, H1N1
  DV: +++ (>75≦100 as +++)
Influenza virus (H1N1); MTT absorbance percentage vs mock control, test drug added one hour after adsorption of virus on cell, dosage 10 μg/mL, MDCK cells, H1N1
  V1 + D: ++++ (>100 as ++++)
Influenza virus (H1N1); MTT absorbance percentage vs mock control, virus infection one hour after pretreatment with test drug, dosage 10 μg/mL, MDCK cells, H1N1
  D1 + V: ++++ (>100 as ++++)
Influenza virus (H1N1); V1+D: test drug added one hour after adsorption of virus on cell, 10 μg/mL
  cell survival rate: 100%

## NC(=O)c1ncn([C@@H]2O[C@H](CO)[C@@H](O)[C@H]2O)n1 [Ribavirin, reference compound]
Influenza virus (H1N1); MTT absorbance percentage vs mock control, […], dosage 9.37 μg/mL, MDCK cells, H1N1
  D1 + V: +++ (>75≦100 as +++)

## O=c1c(O)c(-c2ccc(O)cc2)oc2cc(O)cc(O)c12 [SOFL-EM-8-6S, kaempferol]
[1]; dosage 0.5 mg/mL
  Response: Inhibition
  FU/min (neuraminidase enzymatic activity in presence of medicament): 0.06 FU/min
[1]
  activity relative to that of Tamiflu: six-fold
[2]
  D: ++++ (key: absorbance percentage≦25 was recorded as +/−; >25≦50 recorded as +; >50≦75 as ++; >75≦100 as +++; >100 as ++++)
Influenza virus (H1N1); D1+V: infecting with virus one hour after pretreatment with test drug, 18.75 μg/mL
  cell survival rate: up to 75%
Influenza virus (H1N1); MTT absorbance percentage vs mock control, virus infection one hour after pretreatment with test drug, dosage 18.75 μg/mL, MDCK cells, H1N1
  D1 + V: +++ (>75≦100 as +++)

## CCOC(=O)C1=C[C@@H](OC(CC)CC)[C@H](NC(C)=O)[C@@H](N)C1 [Tamiflu, reference compound]
[1]; dosage 0.5 mg/mL
  Response: Inhibition
  FU/min (neuraminidase enzymatic activity in presence of medicament): 0.01 FU/min
